Laboratory results from US10351522B2, “Sulfonamide derivative and pharmaceutically acceptable acid addition salt thereof” (UNIVERSITY OF TSUKUBA, priority 2015, dated 2019).

Columns and labels:
human OX1R = molecular target: T1, human OX1R (Homo sapiens, UniProt O43613); assay: Agonist activity against OX1R: intracellular calcium (Fura-2AM, FDSS7000) in CHOOX1R cells; type: cell-based; details: relative to orexin-A as full agonist (100%)
T1 construct: expressed in transfected cells; host or cells: CHO (Chinese hamster ovary) cells, line CHOOX1R, co-expressing NFAT-luciferase
T1 sequence (O43613 1-425): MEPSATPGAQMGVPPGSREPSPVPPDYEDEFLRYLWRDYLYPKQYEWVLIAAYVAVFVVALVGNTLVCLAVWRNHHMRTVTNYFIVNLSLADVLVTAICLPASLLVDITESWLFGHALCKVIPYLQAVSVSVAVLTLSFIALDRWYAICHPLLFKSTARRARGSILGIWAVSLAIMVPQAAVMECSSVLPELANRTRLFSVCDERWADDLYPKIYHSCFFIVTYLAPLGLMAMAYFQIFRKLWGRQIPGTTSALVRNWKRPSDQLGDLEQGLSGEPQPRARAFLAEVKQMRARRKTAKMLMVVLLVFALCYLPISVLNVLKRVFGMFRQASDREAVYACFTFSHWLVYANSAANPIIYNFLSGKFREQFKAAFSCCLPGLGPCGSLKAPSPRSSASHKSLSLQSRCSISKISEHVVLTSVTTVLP
In short: (§1)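 Response is agonist activity at 0.1, 1.0 or 10 μM compound as a percentage of the orexin-A full-agonist maximum, taken from 340/380 nm Fura-2 ratio changes. Each cell line is CHO constitutively expressing human OX1R or OX2R with NFAT-luciferase, dye-loaded 60 min with 5 μM Fura-2AM; compound range 10^−7–10^−5 M, 1% DMSO.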

human OX2R = molecular target: T2, human OX2R (Homo sapiens, UniProt O43614); assay: Agonist activity against OX2R: intracellular calcium (Fura-2AM, FDSS7000) in CHOOX2R cells; type: cell-based; details: relative to orexin-A as full agonist (100%)
T2 construct: expressed in transfected cells; host or cells: CHO (Chinese hamster ovary) cells, line CHOOX2R, co-expressing NFAT-luciferase
T2 sequence (O43614 1-444): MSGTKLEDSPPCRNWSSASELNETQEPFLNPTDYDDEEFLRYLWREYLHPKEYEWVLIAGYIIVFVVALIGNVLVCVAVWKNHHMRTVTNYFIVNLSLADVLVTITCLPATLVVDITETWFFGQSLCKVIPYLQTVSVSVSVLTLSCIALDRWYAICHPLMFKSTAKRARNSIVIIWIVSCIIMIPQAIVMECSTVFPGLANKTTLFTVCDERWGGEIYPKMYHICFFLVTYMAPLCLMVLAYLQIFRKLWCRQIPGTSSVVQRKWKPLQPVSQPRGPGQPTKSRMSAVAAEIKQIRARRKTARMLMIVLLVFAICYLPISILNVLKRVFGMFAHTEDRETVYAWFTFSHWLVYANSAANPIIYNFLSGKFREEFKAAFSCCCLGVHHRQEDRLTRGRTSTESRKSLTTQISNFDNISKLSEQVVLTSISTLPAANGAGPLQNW
In short: as §1

Compound	Response (%) OX1R (human OX1R; 0.1 μM test compound) [%]	Response (%) OX1R (human OX1R; 1.0 μM test compound) [%]	Response (%) OX1R (human OX1R; 10 μM test compound) [%]	Response (%) OX2R (human OX2R; 0.1 μM test compound) [%]	Response (%) OX2R (human OX2R; 1.0 μM test compound) [%]	Response (%) OX2R (human OX2R; 10 μM test compound) [%]	Response (%) OX1R (human OX1R; test compound 0.1 μM) [%]	Response (%) OX1R (human OX1R; test compound 1.0 μM) [%]	Response (%) OX1R (human OX1R; test compound 10 μM) [%]	Response (%) OX2R (human OX2R; test compound 0.1 μM) [%]	Response (%) OX2R (human OX2R; test compound 1.0 μM) [%]	Response (%) OX2R (human OX2R; test compound 10 μM) [%]	Emax at 0.1 µM (human OX1R; test compound 0.1 μM, read-out: Response (%) OX1R) [%]	Emax at 1 µM (human OX1R; test compound 1.0 μM, read-out: Response (%) OX1R) [%]	Emax at 10 µM (human OX1R; test compound 10 μM, read-out: Response (%) OX1R) [%]
COc1ccc(-c2cccc(C(=O)N(C)C)c2)cc1S(=O)(=O)Nc1cccc(NC(=O)Nc2ccccc2N(C)C)c1 [Example 41]	<5	<5	<5	17	93	102									
CCN(Cc1cccnc1)C(=O)c1ccc(OC)c(S(=O)(=O)Nc2cccc(NC(=O)Nc3ccc(N(C)C)cc3)c2)c1 [Example 111]							<5	<5	<5	32	88	100			
COc1ccc(-c2cccc(C(=O)N(C)C)c2)cc1S(=O)(=O)Nc1cccc(NC(=O)c2ccc(C)cc2)c1 [Example 17]	<5	<5	13	<5	9	41									
COc1ccccc1NC(=O)Nc1cccc(NS(=O)(=O)c2cc(-c3cccc(C(=O)N(C)C)c3)ccc2OC)c1 [Example 52]	<5	<6	<7	43	81	78									
COc1cccc(S(=O)(=O)Nc2cccc(NS(=O)(=O)c3cc(-c4cccc(C(=O)N(C)C)c4)ccc3OC)c2)c1 [Example 85, 4′-methoxy-3′-(N-(3-(3-methoxyphenylsulfonamido)phenyl)sulfamoyl)-N,N-dimethyl-[1,1′-biphenyl]-3-carboxamide]										<5	<5	12	< 5	< 5	< 5
COc1ccc(C(=O)NCc2cccnc2)cc1S(=O)(=O)Nc1cccc(NC(=O)Nc2ccc(N(C)C)cc2)c1 [Example 109]							8	9	7	7	6	39			
COc1ccc(-c2cccc(C(=O)N(C)C)c2)cc1S(=O)(=O)Nc1cccc(N2CCCCN(c3cccc(N(C)C)c3)C2=O)c1 [Example 136]							<5	78	110	144	97	94			
COc1ccc(-c2cccc(C(=O)N(C)C)c2)cc1S(=O)(=O)Nc1cccc(NC(=O)c2ccc3ccccc3c2)c1 [Example 9]	5	6	5	<5	41	47									
COc1ccc(-c2cccc(C(=O)N(C)C)c2)cc1S(=O)(=O)Nc1cccc(NC(=O)Nc2ccc(N)cc2)c1 [Example 55]	<5	<5	<5	<5	54	105									
COc1ccc(-c2cccc(C(=O)N(C)C)c2)cc1S(=O)(=O)Nc1cccc(N2CCCN(c3cccc(N(C)C)c3)C2=O)c1 [Example 134]							9	13	84	101	76	75			
COc1ccc(-c2cccc(C(=O)N(C)C)c2)cc1S(=O)(=O)Nc1cccc(NCc2ccccc2O)c1 [Example 26]	<5	<5	9	<5	51	101									
